Measured values published in PubChem BioAssay (NCI).
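Step 1: Grow cells in 96-well plates. Step 2: Expose to compound for 48 hours at 5 concentrations. Step 3: Interpolate endpoints linearly; if unreached, use highest concentration. GI50 marks 50% less growth. TGI: concentration producing complete growth inhibition.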

What was measured:
Assay in all cases: inhibition of tumour cell growth, NCI panel, 48 h
BT-549 breast = tested on: BT-549 breast
CCRF-CEM leukemia = tested on: CCRF-CEM leukemia
HOP-62 NSCLC = tested on: HOP-62 NSCLC
HT29 colon = tested on: HT29 colon
MOLT-4 leukemia = tested on: MOLT-4 leukemia
OVCAR-3 ovarian = tested on: OVCAR-3 ovarian
SK-MEL-2 melanoma = tested on: SK-MEL-2 melanoma
SK-MEL-28 melanoma = tested on: SK-MEL-28 melanoma
SNB-75 CNS = tested on: SNB-75 CNS
UACC-62 melanoma = tested on: UACC-62 melanoma

| Structure (SMILES) | GI50 (BT-549 breast) | TGI (BT-549 breast) | GI50 (CCRF-CEM leukemia) | TGI (CCRF-CEM leukemia) | GI50 (HOP-62 NSCLC) | TGI (HOP-62 NSCLC) | GI50 (HT29 colon) | TGI (HT29 colon) | GI50 (MOLT-4 leukemia) | TGI (MOLT-4 leukemia) | GI50 (OVCAR-3 ovarian) | TGI (OVCAR-3 ovarian) | GI50 (SK-MEL-2 melanoma) | TGI (SK-MEL-2 melanoma) | GI50 (SK-MEL-28 melanoma) | TGI (SK-MEL-28 melanoma) | GI50 (SNB-75 CNS) | TGI (SNB-75 CNS) | GI50 (UACC-62 melanoma) | TGI (UACC-62 melanoma) |
| --- | --- | --- | --- | --- | --- | --- | --- | --- | --- | --- | --- | --- | --- | --- | --- | --- | --- | --- | --- | --- |
| O=C1OCC2=C1C(c1ccc(Cl)c(Cl)c1)c1cc3c(cc1N2CCO)CCC3 (configuration not stated) | 1.35 µM | 10.9 µM | 0.257 µM | 13.6 µM | 0.229 µM | 9.26 µM | 0.164 µM | 0.646 µM | 0.628 µM | 27.8 µM | 0.145 µM | 0.509 µM | 0.192 µM | 6.89 µM | 0.323 µM | 11.7 µM | 0.134 µM | 11.7 µM | 0.215 µM | 8.6 µM |
| COc1cc2c(cc1Nc1nc(Nc3cccc(F)c3C(N)=O)c3cc[nH]c3n1)N(C(=O)CN1CCN(C(C)C)CC1)CC2 | 3.95 µM | 7.54 µM | 5.35 µM | 14.2 µM | 2.88 µM | 5.92 µM | 0.685 µM | 4.06 µM | 4.74 µM | 10.7 µM | 4.52 µM | 8.69 µM | 3.3 µM | 6.95 µM | 3.7 µM | 7.02 µM | 3 µM | 6.18 µM | 3.9 µM | 7.74 µM |
| O=C(Nc1ccccc1)c1cc(S(=O)(=O)Nc2nc3ccccc3o2)c(SCc2ccccc2)cc1Cl | 19 µM | 40.6 µM | 11.4 µM | 28.5 µM | 20.2 µM | 42.5 µM | 43 µM | > 100 µM | 13.3 µM | 37.8 µM | 19.9 µM | 40 µM | 23.6 µM | 57.3 µM | 22.7 µM | 51.9 µM | 25.3 µM | 66.9 µM | 17.1 µM | 31.6 µM |
| O=S(=O)(/N=c1/scc(-c2ccccc2)n1-c1ccccc1)c1ccc(N2N=C3c4ccccc4CC3C2c2cccs2)cc1 (configuration not stated) | 47.5 µM | > 100 µM | 50.3 µM | > 100 µM | 73.2 µM | > 100 µM | 82 µM | > 100 µM | 19 µM | 63.7 µM | > 100 µM | > 100 µM | > 100 µM | > 100 µM | > 100 µM | > 100 µM | > 100 µM | > 100 µM | 60.3 µM | > 100 µM |
| NCC1OC(OC2C(CO)OC(OC3C(O)C(N)CC(N)C3OC3OC(CO)C(O)CC3N)C2O)C(N)C(O)C1OC1OC(CO)C(O)C(O)C1O (configuration not stated) | > 50 µg/mL | > 50 µg/mL | > 50 µg/mL | > 50 µg/mL | > 50 µg/mL | > 50 µg/mL | > 50 µg/mL | > 50 µg/mL | > 50 µg/mL | > 50 µg/mL | > 50 µg/mL | > 50 µg/mL | > 50 µg/mL | > 50 µg/mL | > 50 µg/mL | > 50 µg/mL | > 50 µg/mL | > 50 µg/mL | > 50 µg/mL | > 50 µg/mL |
| CC(=O)OC1CC2C3CCC4C[C@@H](NC(=O)C=C(C)C)CC[C@]4(C)C3CC[C@]2(C)[C@H]1C(C)N(C)C (some centres not stated) | 4.21 µM | 11.1 µM | 1.81 µM | 8.15 µM | 1.8 µM | 3.64 µM | 0.376 µM | 1.47 µM | 1.32 µM | 4.18 µM | 1.99 µM | 7.56 µM | 2.31 µM | 4.58 µM | 1.75 µM | 3.39 µM | 2 µM | 6.51 µM | 2.16 µM | 4.45 µM |
| COc1ccc(Nc2cc(C)nc(NCCCNc3ccnc4cc(Cl)ccc34)n2)cc1 | 1.86 µM | 4.67 µM | 1.31 µM | 6.49 µM | 1.65 µM | 3.93 µM | 1.1 µM | 2.67 µM | 2.95 µM | > 100 µM | 1.65 µM | 3.12 µM | 2.19 µM | 3.76 µM | 1.65 µM | 3.16 µM | 1.28 µM | 2.54 µM | 1.81 µM | 3.44 µM |
| O=C(Nc1n[nH]c2nnc(-c3cccnc3)cc12)C1CC1 | 10.8 µM | > 25 µM | 7.05 µM | > 25 µM | 10.1 µM | > 25 µM | 4.76 µM | > 25 µM | 4.88 µM | > 25 µM | 0.114 µM | > 18.4 µM | 21.8 µM | > 25 µM | > 16.9 µM | > 25 µM | 0.141 µM | > 25 µM | 7.37 µM | > 25 µM |
| O=C(c1ccco1)c1c(C(F)(F)F)n([O-])c2ccc(Cl)cc2[n+]1=O | 0.109 µM | 0.73 µM | – | 0.838 µM | 0.194 µM | 0.617 µM | 0.359 µM | > 100 µM | 0.0335 µM | 0.539 µM | 1.11 µM | 3.92 µM | 1.76 µM | 9.78 µM | 2.04 µM | 5.71 µM | 1.9 µM | 5.18 µM | 0.574 µM | 1.99 µM |
| Clc1ccc(OCc2nnc3n2N=C(c2ccc(Cl)cc2Cl)CS3)cc1 | 22.8 µM | 46.2 µM | 21.1 µM | 68.1 µM | 19.6 µM | 41.3 µM | 16 µM | 51.8 µM | 32.4 µM | > 100 µM | 17.8 µM | 50.7 µM | 22.1 µM | 45.8 µM | 20.6 µM | 44.6 µM | 16.3 µM | 43.2 µM | 14 µM | 31.4 µM |
| CC1(C)[C@@H](OC(=O)CCC(=O)O)CC[C@]2(C)[C@H]3C(=O)C=C4[C@@H]5C[C@@](C)(C(=O)O)CC[C@]5(C)CC[C@@]4(C)[C@]3(C)CC[C@@H]12 | 51.1 µM | 83.3 µM | 52.4 µM | 78.3 µM | 53.9 µM | 79.5 µM | 56.1 µM | 130 µM | – | – | 50.4 µM | 62.9 µM | 52.1 µM | 67.9 µM | 57.5 µM | 85.4 µM | 55 µM | 83.5 µM | 48.1 µM | 60.6 µM |
| O=C1c2ccccc2-c2c1c1ccccc1c(=O)n2CCCNCCCCNCCCN1C(=O)c2ccccc2C2C(=O)c3ccccc3C21 (configuration not stated) | 0.854 µM | 2.04 µM | 0.0291 µM | 0.766 µM | 0.273 µM | 1.08 µM | 0.0766 µM | 8.75 µM | < 0.005 µM | 0.711 µM | 0.212 µM | 0.87 µM | 1.04 µM | 3.82 µM | 1.19 µM | 6.76 µM | 0.726 µM | 1.46 µM | 0.666 µM | 3.25 µM |
